Assay results reported in patent publication US9732078B2, “Therapeutic use of imidazopyridine derivatives” (SANOFI, priority 2012, dated 2017).
Where a name gives a salt, the structure may show the parent alone.

Columns and labels:
[1] = test system: TCC97-7 bladder cancer cells carrying the Ser249Cys mutation of FGF receptor 3; test: Reduction of intracellular ATP content of TCC97-7 cells (Cell Titer-Glo, 3 days, serum-supplemented medium); format: cell-based; details: TCC97-7 cells in presence of serum; for inhibition at 0.1 µM / inhibition at 1 µM / inhibition at 10 µM: 72 h, read-out: Inhibition of the amount of intracellular ATP (%)
Protocol: Evaluation of the Capacity of the FGF-R Antagonists to Reduce the ATP Content of TCC97-7 Bladder Cancer Cells Carrying the Ser249Cys Mutation of FGF Receptor 3, Cultured in a Serum-Supplemented Medium
To do this, 3000 cells are seeded in 50 μl of complete medium (Ham-F/12, 1% FCS, […], non-essential amino acids, sodium pyruvate, 1% insulin/transferrin/selenium, hydrocortisone). 16 hours later, 50 μl of the various compounds are added at 0.2, 2, 20 and 60 μM after dilution in complete culture medium in order to obtain final concentrations of 0.1, 1, 10 and 30 μM. After 3 days, the ATP content of the cells is measured using the Cell Titer-Glo® Luminescent Cell Viability Assay kit (Promega, France) according to the supplier's recommendations. The percentage inhibition of the amount of intracellular ATP is calculated by considering the ATP content of the cells cultured in the absence of antagonist to be 0% inhibition. 100% inhibition would correspond to a well in which the ATP content is zero.

[2] = test system: TCC97-7 bladder cancer tumour cells carrying the Ser249Cys mutation of FGF receptor 3; test: Inhibition of serum-induced proliferation of TCC97-7 bladder cancer cells (count of Hoechst 33342-labelled nuclei after 3 days); format: cell-based; details: TCC97-7 cells in presence of serum; for inhibition at 0.01 µM / inhibition at 0.1 µM / inhibition at 1 µM / inhibition at 10 µM: 72 h
Protocol: To do this, 2000 cells are seeded in the morning in 50 μl of complete medium (Ham-F/12, 1% FCS, 2 mM glutamine, non-essential amino acids, sodium pyruvate, 1% insulin/transferrin/selenium, hydrocortisone). In the evening, 50 μl of the various compounds are added at 0.02, 0.2, 2 or 20 μM after dilution in complete culture medium in order to obtain final concentrations of 0.01, 0.1, 1 and 10 μM. After 3 days, the cell proliferation is evaluated by measuring the number of nuclei at the bottom of each well corresponding to a number of cells. The nuclei are detected by means of labelling with Hoechst 33342 (Invitrogen, ref H3570). 100 μl of Hoechst 33342 diluted to 1/5000th in PBS are added to each well for 30 min at ambient temperature on non-fixed cells. The nuclei are detected by fluorescence at 350 nm at ×2 magnification with an Operetta (PerkinElmer) using the Acapella (PerkinElmer) imaging software and analysed using the Columbus (PerkinElmer) image analysis software. The percentage inhibition of the cell proliferation is calculated by considering the number of nuclei present in the wells in which the TCC97-7 cells are cultured in the absence of FGF-R antagonists to be 0% inhibition. 100% inhibition would correspond to a well no longer containing cells.

[3] = Cytotoxic effect: percentage of permeabilized (very fluorescent, Hoechst 33342) TCC97-7 cells; format: cell-based; details: human, read-out: Cytotoxicity (% of permeable cells)
Protocol: (§1) In parallel to their antiproliferative capacity, the potential cytotoxic effect of the FGF-R antagonists is measured by means of quantifying the number of cells of which the membranes are permeabilized. The appearance of pores in the plasma membrane of the cells corresponds to a state of cell death which enables the Hoechst 33342 to penetrate more easily into the cell. This is reflected by a very strong increase in the amount of fluorescence detected in the nuclei. The percentage of cells in a state of cell death is calculated by the ratio between the number of very fluorescent nuclei to the total number of nuclei, multiplied by 100. The observations are carried out in the same way as the quantification of the nuclei for the cell proliferation.

[4] = test system: TCC97-7 bladder cancer tumour cells carrying the Ser249Cys mutation of FGF receptor 3; test: Cytotoxic effect: percentage of permeabilized (very fluorescent, Hoechst 33342) TCC97-7 cells; format: cell-based; details: 3 days
Protocol: as §1

Work on `Cn1c(=O)n(Cc2ccc(F)cc2)c(=O)c2cc(C(=O)c3nc(-c4cccnc4)c4ccccn34)ccc21` [compound 112, 3-(4-Fluorobenzyl)-1-methyl-6-[(1-pyridin-3-ylimidazo[1,5-a]pyridin-3-yl)carbonyl]quinazoline-2,4(1H, 3H)-dione] yielded an inhibition at 0.1 µM ([1]; 0.1 μM) of -3%, an inhibition at 1 µM ([1]; 1 μM) of 51% and an inhibition at 10 µM ([1]; 10 μM) of 88%. The inhibition at 0.01 µM ([2]; 0.01 μM) was 8%, the inhibition at 0.1 µM ([2]; 0.1 μM) was 18% and the inhibition at 1 µM ([2]; 1 μM) was 61%. It also gave an inhibition at 10 µM ([2]; 10 μM) of 84%, a cytotoxicity at 3 days, 0.01 µM [3] of 4% and a cytotoxicity at 3 days, 0.1 µM [3] of 4%. It also gave a cytotoxicity at 3 days, 1 µM [3] of 16% and a cytotoxicity at 3 days, 10 µM [3] of 11%.
In the case of `CCCn1c(=O)[nH]c2ccc(C(=O)c3nc(NS(C)(=O)=O)c4ccccn34)cc2c1=O` [compound 13, N-{3-[(2,4-dioxo-3-propyl-1,2,3,4-tetrahydroquinazolin-6-yl)carbonyl]imidazo[1,5-a]pyridin-1-yl}methanesulphonamide], the melting point was 334 °C.
In the case of `CCCn1c(=O)[nH]c2ccc(C(=O)c3nc(-c4cccc(C(N)=O)c4)c4ccccn34)cc2c1=O` [compound 29, 3-{3[(2,4-Dioxo-3-propyl-1,2,3,4-tetrahydroquinazolin-6-yl)carbonyl]imidazo[1,5-a]pyridin-1-yl}benzamide], the inhibition at 0.1 µM ([1]; 0.1 μM) was -4%, the inhibition at 1 µM ([1]; 1 μM) was 8% and the inhibition at 10 µM ([1]; 10 μM) was 24%. The inhibition at 0.01 µM ([2]; 0.01 μM) was 6%, the inhibition at 0.1 µM ([2]; 0.1 μM) was 9% and the inhibition at 1 µM ([2]; 1 μM) was 45%. The inhibition at 10 µM ([2]; 10 μM) was 71%, the cytotoxicity at 3 days, 0.01 µM [3] was 3% and the cytotoxicity at 3 days, 0.1 µM [3] was 3%. For the same compound, the cytotoxicity at 3 days, 1 µM [3] was 8% and the cytotoxicity at 3 days, 10 µM [3] was 17%.
`O=C(c1ccc2nc[nH]c(=O)c2c1)c1ncc2ccccn12` [compound 3, 6-(Imidazo[1,5-a]pyridin-3-ylcarbonyl)quinazolin-4(3H)-one] gave a melting point of 289 °C.
Compound `CCCn1c(=O)[nH]c2ccc(C(=O)c3ncc4ccc(C(=O)O)cn34)cc2c1=O` [compound 8, 3-[(2,4-Dioxo-3-propyl-1,2,3,4-tetrahydroquinazolin-6-yl)carbonyl]imidazo[1,5-a]pyridine-6-carboxylic acid] has a melting point of 384 °C.
`Cn1c(=O)n(Cc2ccc(F)cc2)c(=O)c2cc(C(=O)c3nc(-c4cccnc4)c4ccccn34)ccc21` (as salt: hydrochloride) [compound 112, 3-(4-Fluorobenzyl)-1-methyl-6-[(1-pyridin-3-ylimidazo[1,5-a]pyridin-3-yl)carbonyl]quinazoline-2,4(1H, 3H)-dione] gave a melting point of 267 °C.
`Cl.Cn1c(=O)n(Cc2ccc(F)cc2)c(=O)c2cc(C(=O)c3nc(-c4cccc(C(=O)OCCN5CCOCC5)c4)c4ccccn34)ccc21` showed a melting point of 215 °C.
In the case of `CCCn1c(C)nc2ccc(C(=O)c3nc(-c4cccc(C(N)=O)c4)c4ccccn34)cc2c1=O` [compound 55, 3-{3-[(2-Methyl-4-oxo-3-propyl-3,4-dihydroquinazolin-6-yl)carbonyl]imidazo[1,5-a]pyridin-1-yl}benzamide], the inhibition at 0.1 µM ([1]; 0.1 μM) was 11%, the inhibition at 1 µM ([1]; 1 μM) was 17% and the inhibition at 10 µM ([1]; 10 μM) was 57%. The inhibition at 0.01 µM ([2]; 0.01 μM) was 3%, the inhibition at 0.1 µM ([2]; 0.1 μM) was -2% and the inhibition at 1 µM ([2]; 1 μM) was 29%. It also gave an inhibition at 10 µM ([2]; 10 μM) of 47%, a cytotoxicity at 3 days, 0.01 µM [3] of 5% and a cytotoxicity at 3 days, 0.1 µM [3] of 5%. The cytotoxicity at 3 days, 1 µM [3] was 6% and the cytotoxicity at 3 days, 10 µM [3] was 6%.
In the case of `CN(C)CCNC(=O)c1cccc(-c2nc(C(=O)c3ccc4c(c3)c(=O)n(Cc3ccc(F)cc3)c(=O)n4C)n3ccccc23)c1.Cl` [compound 116, N-[2-(dimethylamino)ethyl]-3-(3-{[3-(4-fluorobenzyl)-1-methyl-2,4-dioxo-1,2,3,4-tetrahydroquinazolin-6-yl]carbonyl}imidazo[1,5-a]pyridin-1-yl)benzamide hydrochloride], the inhibition at 0.1 µM ([1]; 0.1 μM) was 6%, the inhibition at 1 µM ([1]; 1 μM) was 9% and the inhibition at 10 µM ([1]; 10 μM) was 95%. It also gave a melting point of 247 °C, an inhibition at 0.01 µM ([2]; 0.01 μM) of -1% and an inhibition at 0.1 µM ([2]; 0.1 μM) of -3%. For the same compound, the inhibition at 1 µM ([2]; 1 μM) was 22%, the inhibition at 10 µM ([2]; 10 μM) was 83% and the cytotoxicity at 3 days, 0.01 µM [3] was 2%. For the same compound, the cytotoxicity at 3 days, 0.1 µM [3] was 2%, the cytotoxicity at 3 days, 1 µM [3] was 2% and the cytotoxicity at 3 days, 10 µM [3] was 3%.
In the case of `Cn1c(=O)n(CCc2ccc(F)cc2)c(=O)c2cc(C(=O)c3nc(-c4cccc(C(=O)[O-])c4)c4ccccn34)ccc21.[Na+]` [compound 148], the “Inhibition of the amount of intracellular ATP (%)” value (“Inhibition of the amount … (%)” for short) ([1]; 0.1 μM) was 1%, the “Inhibition of the amount … (%)” value ([1]; 1 μM) was 8% and the “Inhibition of the amount … (%)” value ([1]; 10 μM) was 66%. The “Inhibition of proliferation (%)” value ([2]; 0.01 μM) was 12%, the “Inhibition of proliferation (%)” value ([2]; 0.1 μM) was 6% and the “Inhibition of proliferation (%)” value ([2]; 1 μM) was 15%. For the same compound, the “Inhibition of proliferation (%)” value ([2]; 10 μM) was 81%, the “Cytotoxicity (% of permeable cells)” value ([4]; 0.01 μM) was 4% and the “Cytotoxicity (% of permeable cells)” value ([4]; 0.1 μM) was 4%. The “Cytotoxicity (% of permeable cells)” value ([4]; 1 μM) was 4% and the “Cytotoxicity (% of permeable cells)” value ([4]; 10 μM) was 11%.
